Experimental findings from patent US20100144606A1, “COMBINATION 408” (AstraZeneca AB, priority 2008, published 2010) are described below.

The nature of data set [1]: Gravimetric Vapour Sorption (GVS). The class given is physicochemical. To be noted: at 80% RH (±0.2%). On the procedure: Instrument Details: • X-Ray Powder Diffraction (XRPD)—PANalytical X'Pert machine in 2Ø-Ø configuration or a PANalytical Cubix machine in Ø-Ø configuration over the scan range 2° to 40° 2Ø with 100-second exposure per 0.02° increment. The X-rays were generated by a copper long-fine focus tube operated at 45 kV and 40 mA. […] The Data was collected on zero background holders on which ˜2 mg of the compound was placed. The holder was made from a single crystal of silicon, which had been cut along a non-diffracting plane and then polished on an optically flat finish. The X-rays incident upon this surface were negated by Bragg extinction. • Differential Scanning Calorimetry (DSC) thermograms were measured using a TA Q1000 Differential Scanning Calorimeter, with aluminium pans and pierced lids. The sample weights varied between 0.5 to 5 mg. The procedure was carried out under a flow of nitrogen gas (50 mL/min) and the temperature studied from 30 to 230° C. at a constant rate of temperature increase of 10° C. per minute. • Gravimetric Vapour Sorption (GVS) profiles were measured using a Surface Measurements Systems Dynamic Vapour Sorption DVS-1 or a DVS Advantage instrument. The solid sample ca. 1-5 mg was placed into a glass vessel and the weight of the sample was recorded during a dual cycle step method (40 to 90 to 0 to 90 to 0% relative humidity (RH), in steps of 10% RH).

A further data set relates to guinea pig trachea. The data set is described as follows: Bronchodilator activity in the guinea pig isolated tracheal ring preparation. The class given is cell-based. To be noted: 60 min, methacholine (1 μM) contracted, mean±s.e.mean. On the procedure: Evaluation of Bronchodilator Activity in the Guinea Pig Isolated Tracheal Ring Preparation
Guinea pigs (300-500 g) were killed by cervical dislocation and the trachea was isolated. The trachea was cut into segments 2-3 cartilage rings in width and suspended in 10 ml organ baths in modified Krebs' solution (mM; NaCl, 90; NaHCO3, 45; KCl, 5; MgSO4.7H2O, 0.5; Na2HPO4.2H2O, 1; CaCl2, 2.25; glucose, 10; pH 7.4 gassed with 5% CO2, 95% O2 at 37° C.). The tracheal rings were attached to an isometric force transducer for the measurement of isometric tension. The tissues were washed and a force of 1 g was applied to each tissue. The rings were contracted with methacholine (1 μM). Once the contraction had reached a plateau, vehicle (0.01% DMSO in distilled H2O), compound W (1 nM or 3 nM), compound X (1 nM), compound Y (1 nM), a combination of compound W (3 nM) and compound X (1 nM), or a combination of compound W (1 nM) and compound Y (1 nM) was added and the tissue left for 60 min. The tension was measured in each ring at 60 min following compound addition and was expressed as a % relaxation of the constriction to methacholine (1 μM) (mean±s.e.mean). Data were collected using the Chart 4 software (ADInstruments, Charlgrove, UK).

For another data set, the target named is T1, β2 adrenoceptor (Homo sapiens, UniProt P07550).
T1 construct: Adherent H292 cells were removed from tissue culture flasks; endogenous in cells; host or cells: H292 cells
The data set is described as follows: Adrenergic β mediated cAMP production in H292 cells (AlphaScreen). The class given is cell-based. The settings on record: Intrinsic Activity as a fraction relative to the maximum activity of formoterol. As for the experimental part: Adrenergic β Mediated cAMP Production.
Cell preparation. H292 cells were grown in 225 cm2 flasks incubator at 37° C., 5% CO2 in RPMI medium containing, 10% (v/v) FBS (foetal bovine serum) and 2 mM L-glutamine.
Experimental Method. Adherent H292 cells were removed from tissue culture flasks by treatment with Accutase™ cell detachment solution for 15 minutes. Flasks were incubated for 15 minutes in a humidified incubator at 37° C., 5% CO2. Detached cells were re-suspended in RPMI media (containing 10% (v/v) FBS and 2 mM L-glutamine) at 0.05×10^6 cells per mL. 5000 cells in 100 μL were added to each well of a tissue-culture-treated 96-well plate and the cells incubated overnight in a humidified incubator at 37° C., 5% CO2. […]
AlphaScreen™ cAMP detection. The concentration of cAMP (cyclic adenosine monophosphate) in the cell lysate was determined using AlphaScreen™ methodology. […] The AlphaScreen™ signal was measured using an EnVision spectrophotometer (Perkin-Elmer Inc.) with the recommended manufacturer's settings. cAMP concentrations were determined by reference to a calibration curve determined in the same experiment using standard cAMP concentrations. […] Intrinsic Activity was expressed as a fraction relative to the maximum activity determined for formoterol in each experiment. […]
On the technique in general: Cyclic AMP is a second messenger, typically raised through Gs and lowered through Gi signalling.

Counter-ions that a name gives are not always drawn.

T1 sequence (P07550 whole entry): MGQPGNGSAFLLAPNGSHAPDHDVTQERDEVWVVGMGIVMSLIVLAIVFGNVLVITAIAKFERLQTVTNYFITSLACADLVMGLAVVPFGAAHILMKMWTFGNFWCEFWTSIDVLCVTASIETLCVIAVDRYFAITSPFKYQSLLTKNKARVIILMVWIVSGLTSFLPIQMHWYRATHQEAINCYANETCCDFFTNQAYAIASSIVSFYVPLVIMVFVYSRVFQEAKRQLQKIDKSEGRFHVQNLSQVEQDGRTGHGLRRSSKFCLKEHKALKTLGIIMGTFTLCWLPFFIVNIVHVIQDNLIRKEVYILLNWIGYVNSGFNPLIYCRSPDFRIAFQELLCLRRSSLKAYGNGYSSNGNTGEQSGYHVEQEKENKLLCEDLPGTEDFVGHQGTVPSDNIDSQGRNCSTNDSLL

`C[C@@](C(=O)O[C@H]1C[N+]2(CCc3ccc(F)cc3)CCC1CC2)(c1ccccc1)N1CCCCC1.[Br-]` [Preparation 4 bromide Form A, (R)-1-[2-(4-Fluoro-phenyl)-ethyl]-3-((S)-2-phenyl-2-piperidin-1-yl-propionyloxy)-1-azonia-bicyclo[2.2.2]octane bromide (Form A)] returned a GVS weight increase in data set [1] of 0.1 % w/w.

`C[C@@](C(=O)O[C@H]1C[N+]2(CCc3ccc(F)cc3)CCC1CC2)(c1ccccc1)N1CCCCC1.[Br-]` [Preparation 4 bromide Form C, (R)-1-[2-(4-Fluoro-phenyl)-ethyl]-3-((S)-2-phenyl-2-piperidin-1-yl-propionyloxy)-1-azonia-bicyclo[2.2.2]octane bromide (Form C)]: the GVS weight increase in data set [1] was 4 % w/w.

For the molecule `C[C@@](C(=O)O[C@H]1C[N+]2(CCc3ccc(F)cc3)CCC1CC2)(c1ccccc1)N1CCCCC1.[Br-]` [compound Y, (R)-1-[2-(4-Fluoro-phenyl)-ethyl]-3-((S)-2-phenyl-2-piperidin-1-yl-propionyloxy)-1-azonia-bicyclo[2.2.2]octane bromide], the percentage relaxation in the data set with guinea pig trachea (1 nM, n=6, FIG. 30) is 17±3.4%.

Turning to “N-Cyclohexyl-N^3-[2-(3-fluorophenyl)ethyl]-N-(2-{[2-(4-hydroxy-2-oxo-2,3-dihydro-1,3-benzothiazol-7-yl)ethyl]amino}ethyl)-β-alaninamide di-D-Mandelate salt [Preparation 3 (Form A)]”, the GVS weight increase in data set [1] came to 1 % w/w. For the same molecule, the percentage relaxation with guinea pig trachea (1 nM, n=6, FIG. 30) amounted to 48±3.9%; with guinea pig trachea (3 nM, n=4, FIG. 29), 46±10.7%.

Regarding `C[N+](C)(CCOCc1ccc(Cl)cc1)Cc1cnc([C@](O)(c2ccccc2)C2CCCCC2)o1.C[N+](C)(CCOCc1ccc(Cl)cc1)Cc1cnc([C@](O)(c2ccccc2)C2CCCCC2)o1.O=S(=O)([O-])c1cccc2c(S(=O)(=O)[O-])cccc12` [compound X, [2-(4-Chloro-benzyloxy)-ethyl]-[2-((R)-Cyclohexyl-hydroxy-phenyl-methyl)-oxazol-5-ylmethyl]-dimethyl-ammonium hemi-napadisylate salt, reference compound], the percentage relaxation in the data set with guinea pig trachea (1 nM, n=4, FIG. 29) was determined as 1±0.5%.

As to `C[C@@](C(=O)O[C@H]1C[N+]2(CCc3ccc(F)cc3)CCC1CC2)(c1ccccc1)N1CCCCC1.Cc1ccc(S(=O)(=O)[O-])cc1` [Preparation 16, (R)-1-(4-fluorophenethyl)-3-((S)-2-phenyl-2-(piperidin-1-yl)propanoyloxy)-1-azoniabicyclo[2.2.2]octane 4-methylbenzenesulphonate], in data set [1], the GVS weight increase turned out to be 0.1 % w/w.

In the case of `O=C(CCNCCc1cccc(F)c1)N(CCNCCc1ccc(O)c2[nH]c(=O)sc12)C1CCCCC1` [Preparation 2, N-Cyclohexyl-N^3-[2-(3-fluorophenyl)ethyl]-N-(2-{[2-(4-hydroxy-2-oxo-2,3-dihydro-1,3-benzothiazol-7-yl)ethyl]amino}ethyl)-β-alaninamide dihydrobromide salt], the “β2 Int Act” value on β2 adrenoceptor worked out at 0.85.
